Experimental data reported in US20220175889A1, “NEW DOSAGE REGIMEN FOR INHALED VASOACTIVE INTESTINAL POLYPEPTIDE” (priority 2020, published 2022).

Columns and labels:
[1] = system: histamine-induced bronchoconstriction; settings: single 375 μg inhaled; cited from earlier work
[2] = type: physicochemical; settings: M-neb mobile mesh nebulizer MN-300/9
[3] = system: patients with COVID-19 pulmonary involvement

CC[C@H](C)[C@H](NC(=O)[C@H](CO)NC(=O)[C@H](CC(N)=O)NC(=O)[C@H](CC(C)C)NC(=O)[C@H](Cc1ccc(O)cc1)NC(=O)[C@H](CCCCN)NC(=O)[C@H](CCCCN)NC(=O)[C@@H](NC(=O)[C@H](C)NC(=O)[C@H](CCSC)NC(=O)[C@H](CCC(N)=O)NC(=O)[C@H](CCCCN)NC(=O)[C@H](CCCNC(=N)N)NC(=O)[C@H](CC(C)C)NC(=O)[C@H](CCCNC(=N)N)NC(=O)[C@@H](NC(=O)[C@H](Cc1ccc(O)cc1)NC(=O)[C@H](CC(N)=O)NC(=O)[C@H](CC(=O)O)NC(=O)[C@@H](NC(=O)[C@H](Cc1ccccc1)NC(=O)[C@@H](NC(=O)[C@H](C)NC(=O)[C@H](CC(=O)O)NC(=O)[C@H](CO)NC(=O)[C@@H](N)Cc1c[nH]cn1)C(C)C)[C@@H](C)O)[C@@H](C)O)C(C)C)C(=O)N[C@@H](CC(C)C)C(=O)N[C@@H](CC(N)=O)C(N)=O [Aviptadil]
Protection against histamine-induced bronchoconstriction [1]: the activity could not be shown | Side effects [1]: no side effects were reported | Mass Median Aerodynamic Diameter [2]: 4±0.16 μm | Tolerability ([3]; human, in vivo): well tolerated | Distribution of AEs (%) ([3]; share of the 47 adverse events observed in Treatment Group, 16 patients treatment, 13 placebo): 40.43% | Entering Intensive Care (%) ([3]; treatment group, Age >= 60): 25%
